Results taken from article PMC13198257, “An aerosolized dual-action autotaxin inhibitor-PPARγ agonist for the treatment of pulmonary fibrosis” (Cell Reports Medicine, 2026).

Tested on: lung gene expression
Experiment: RNA sequencing of lung tissue (BLM/EL244 vs BLM)
Assay type: in vivo, mouse
Conditions: BLM/EL244 vs BLM, lung tissue
Description: RNA quality was assessed using an Agilent TapeStation 4150 with the High Sensitivity […] ScreenTape (Agilent), according to the manufacturer’s protocols. For library preparation, the QuantSeq 3’mRNA-Seq Library Prep Kit (Lexogen) was used according to manufacturer’s instructions. Briefly, 500 ng of RNA from each sample was used for first-strand synthesis, followed by RNA template removal, and second-strand synthesis initiated by random primers. In-line barcodes were introduced at this step, and this was followed by magnetic bead-based purification. The resulting libraries were amplified for 15 cycles and re-purified, with quantity and quality assessed on a Qubit 4 Fluorometer with the Invitrogen Qubit dsDNA HS Assay and an Agilent Tapestation 4150 with the High Sensitivity D1000 assay kit, respectively. The quantified libraries were pooled equimolarly; 50ng of total library mix was used for Adapter Conversion PCR Amplification using the Universal Library Conversion Kit (App-A), Version: V1.0 (MGI Tech Co., Ltd.), according to the manufacturer’s instructions.
The quantity and quality of the purified adapter conversion PCR (AC-PCR) product were evaluated on a Qubit 4 Fluorometer with the Invitrogen Qubit dsDNA HS Assay and on an Agilent Tapestation 4150 with the High Sensitivity D1000 assay kit, respectively. This was followed by DNA denaturation, Single-Strand Circularisation, Enzymatic Digestion, Enzymatic Digestion Product Cleanup and Quality Control steps on 1 pmol of AC-PCR product, according to the Universal Library Conversion Kit (App-A) User Manual (Version: A3).
Finally, 60 fmol of ssCirDNA were used for DNB preparation and sequencing on a DNBSEQ-G400 platform at the BSRC Alexander Fleming Genomics Facility, using a G400 App-A FCS SE100 High-throughput Sequencing Set (MGI Tech Co., Ltd.), according to the manufacturer’s instructions.
Alignment of the FASTQ files was performed against the mouse genome build mm10 using a custom Bash script.[143] Read counting on the 3′ UTRs and differential expression analysis were conducted using the metaseqR2 bioconductor package.[144] Genes corresponding to the following biotypes were excluded: polymorphic_pseudogene, processed_transcript, pseudogene, IG_V_pseudogene, misc_RNA, IG_C_gene, IG_J_gene, IG_D_gene, IG_LV_gene, TR_V_gene, TR_V_pseudogene, TEC, and processed_pseudogene. Gene counts were normalized with DESEQ[145] through metaseqR2. Genes with more than 10 counts in at least 50% of the samples were kept for further processing. For differential expression analysis, the PANDORA algorithm[146] was used to estimate a meta p-value integrating the results from the DESEQ, DESEQ2,[147] edgeR,[148] limma,[149] NBPSeq,[150] and NOISeq[151] algorithms. All additional parameters were set to default values.
Pathway enrichment analysis was performed for the Gene Ontology Biological process (BP) and Molecular Function (MF) terms through GeneCodis 4.[152] The volcano plots, scatterplots, Venn diagrams, and dot plots were generated using the ggplot2 Bioconductor package.

## O=C1NC(=O)C(Cc2ccc(OCCC3CCN(C(=O)OCc4cc(Cl)cc(Cl)c4)CC3)cc2)S1 (stereo not shown) [EL244, 3,5-dichlorobenzyl 4-(2-(4-((2,4-dioxothiazolidin-5-yl)methyl)phenoxy)ethyl)piperidine-1-carboxylate]
  1810020O05Rik log2 nFC: 1.58
  1810020O05Rik nFC: 3.00
  2410004I01Rik log2 nFC: 1.80
  2410004I01Rik nFC: 3.47
  9130230L23Rik log2 nFC: 1.34
  9130230L23Rik nFC: 2.53
  9330159F19Rik log2 nFC: 1.78
  9330159F19Rik nFC: 3.43
  9530026P05Rik log2 nFC: 3.17
  9530026P05Rik nFC: 9.00
  A3galt2 log2 nFC: 2.32
  A3galt2 nFC: 5.00
  Acaa1b log2 nFC: 1.43
  Acaa1b nFC: 2.69
  Acot1 log2 nFC: 1.08
  Acot1 nFC: 2.11
  Acoxl log2 nFC: 1.23
  Acoxl nFC: 2.35
  Actc1 log2 nFC: 1.28
  Actc1 nFC: 2.42
  Adam3 log2 nFC: 1.67
  Adam3 nFC: 3.18
  Alas2 log2 nFC: 1.58
  Alas2 nFC: 2.99
  Ankrd63 log2 nFC: 1.34
  Ankrd63 nFC: 2.54
  Aqp9 log2 nFC: 1.66
  Aqp9 nFC: 3.15
  Arhgap28 log2 nFC: 1.14
  Arhgap28 nFC: 2.21
  Arl4d log2 nFC: 1.15
  Arl4d nFC: 2.23
  Arrdc2 log2 nFC: 1.24
  Arrdc2 nFC: 2.36
  Asgr1 log2 nFC: 1.80
  Asgr1 nFC: 3.49
  Baiap3 log2 nFC: 1.24
  Baiap3 nFC: 2.36
  Bbof1 log2 nFC: 1.11
  Bbof1 nFC: 2.15
  Bex2 log2 nFC: 1.46
  Bex2 nFC: 2.76
  Bpifa1 log2 nFC: 1.12
  Bpifa1 nFC: 2.18
  C130080G10Rik log2 nFC: 3.58
  C130080G10Rik nFC: 12.00
  Car3 log2 nFC: 1.57
  Car3 nFC: 2.96
  Casq2 log2 nFC: 2.36
  Casq2 nFC: 5.15
  Cbs log2 nFC: 1.38
  Cbs nFC: 2.61
  Ccdc81 log2 nFC: 1.15
  Ccdc81 nFC: 2.23
  Cd300lg log2 nFC: 1.18
  Cd300lg nFC: 2.27
  Chia1 log2 nFC: 1.16
  Chia1 nFC: 2.24
  Chrdl1 log2 nFC: 1.39
  Chrdl1 nFC: 2.62
  Cidec log2 nFC: 1.57
  Cidec nFC: 2.96
  Ckm log2 nFC: 2.32
  Ckm nFC: 5.00
  Ckmt2 log2 nFC: 2.73
  Ckmt2 nFC: 6.63
  Colq log2 nFC: 1.81
  Colq nFC: 3.52
  Cox6a2 log2 nFC: 1.42
  Cox6a2 nFC: 2.68
  Crtc2 log2 nFC: 1.47
  Crtc2 nFC: 2.76
  Csf3r log2 nFC: 1.69
  Csf3r nFC: 3.22
  Csrp3 log2 nFC: 2.07
  Csrp3 nFC: 4.19
  Cst8 log2 nFC: 1.41
  Cst8 nFC: 2.66
  Cxcl5 log2 nFC: 1.80
  Cxcl5 nFC: 3.49
  Cxcr2 log2 nFC: 1.19
  Cxcr2 nFC: 2.28
  Cyp2a5 log2 nFC: 1.66
  Cyp2a5 nFC: 3.15
  Cyp4b1 log2 nFC: 1.18
  Cyp4b1 nFC: 2.26
  Cytl1 log2 nFC: 1.67
  Cytl1 nFC: 3.18
  D630024D03Rik log2 nFC: 1.60
  D630024D03Rik nFC: 3.03
  Dpysl5 log2 nFC: 1.90
  Dpysl5 nFC: 3.73
  Ear1 log2 nFC: 1.11
  Ear1 nFC: 2.16
  Eml5 log2 nFC: 1.41
  Eml5 nFC: 2.65
  Esm1 log2 nFC: 1.28
  Esm1 nFC: 2.43
  Fabp12 log2 nFC: 1.43
  Fabp12 nFC: 2.69
  Faim2 log2 nFC: 2.03
  Faim2 nFC: 4.10
  Fam71f2 log2 nFC: 1.96
  Fam71f2 nFC: 3.88
  Fosb log2 nFC: 2.38
  Fosb nFC: 5.20
  Ggt1 log2 nFC: 1.91
  Ggt1 nFC: 3.77
  Gm867 log2 nFC: 2.18
  Gm867 nFC: 4.53
  Gm4956 log2 nFC: 1.08
  Gm4956 nFC: 2.12
  Gm9780 log2 nFC: 2.06
  Gm9780 nFC: 4.18
  Gm14964 log2 nFC: 1.87
  Gm14964 nFC: 3.65
  Gm20186 log2 nFC: 1.31
  Gm20186 nFC: 2.48
  Gm42722 log2 nFC: 1.79
  Gm42722 nFC: 3.46
  Gm49353 log2 nFC: 2.21
  Gm49353 nFC: 4.62
  Gnmt log2 nFC: 1.14
  Gnmt nFC: 2.20
  Gpat3 log2 nFC: 1.34
  Gpat3 nFC: 2.54
  Gria1 log2 nFC: 1.61
  Gria1 nFC: 3.05
  Gsta3 log2 nFC: 1.10
  Gsta3 nFC: 2.15
  Gzma log2 nFC: 1.70
  Gzma nFC: 3.26
  Hba-a1 log2 nFC: 1.21
  Hba-a1 nFC: 2.32
  Hba-a2 log2 nFC: 1.14
  Hba-a2 nFC: 2.21
  Hbb-bs log2 nFC: 1.10
  Hbb-bs nFC: 2.15
  Hbb-bt log2 nFC: 1.09
  Hbb-bt nFC: 2.13
  Hhatl log2 nFC: 2.05
  Hhatl nFC: 4.14
  Hpgd log2 nFC: 1.63
  Hpgd nFC: 3.10
  Igfbp3 log2 nFC: 1.75
  Igfbp3 nFC: 3.37
  Igfbp6 log2 nFC: 1.68
  Igfbp6 nFC: 3.21
  Inmt log2 nFC: 1.34
  Inmt nFC: 2.54
  Itga2b log2 nFC: 1.10
  Itga2b nFC: 2.15
  Kcne2 log2 nFC: 1.32
  Kcne2 nFC: 2.50
  Klf15 log2 nFC: 1.42
  Klf15 nFC: 2.67
  Klrc1 log2 nFC: 1.38
  Klrc1 nFC: 2.61
  Krt79 log2 nFC: 1.75
  Krt79 nFC: 3.36
  Ldb3 log2 nFC: 1.52
  Ldb3 nFC: 2.86
  Lrat log2 nFC: 1.15
  Lrat nFC: 2.22
  Mb log2 nFC: 2.27
  Mb nFC: 4.81
  Mir6979 log2 nFC: 1.18
  Mir6979 nFC: 2.26
  Mmp9 log2 nFC: 1.20
  Mmp9 nFC: 2.30
  Mpp3 log2 nFC: 1.65
  Mpp3 nFC: 3.14
  Ms4a4d log2 nFC: 1.15
  Ms4a4d nFC: 2.21
  Mybpc3 log2 nFC: 2.06
  Mybpc3 nFC: 4.18
  Mybphl log2 nFC: 2.33
  Mybphl nFC: 5.04
  Myh6 log2 nFC: 2.62
  Myh6 nFC: 6.14
  Myh7 log2 nFC: 2.22
  Myh7 nFC: 4.68
  Myl4 log2 nFC: 1.94
  Myl4 nFC: 3.85
  Myl7 log2 nFC: 1.90
  Myl7 nFC: 3.73
  Mylk3 log2 nFC: 2.03
  Mylk3 nFC: 4.08
  Myom2 log2 nFC: 1.87
  Myom2 nFC: 3.67
  Ngp log2 nFC: 2.72
  Ngp nFC: 6.57
  Nhlrc1 log2 nFC: 1.34
  Nhlrc1 nFC: 2.53
  Npr3 log2 nFC: 1.53
  Npr3 nFC: 2.88
  Nr4a3 log2 nFC: 1.63
  Nr4a3 nFC: 3.09
  Nrn1 log2 nFC: 1.84
  Nrn1 nFC: 3.59
  Numb log2 nFC: 1.49
  Numb nFC: 2.80
  Pdk4 log2 nFC: 1.64
  Pdk4 nFC: 3.11
  Phf24 log2 nFC: 1.57
  Phf24 nFC: 2.97
  Pln log2 nFC: 2.30
  Pln nFC: 4.92
  Pmvk log2 nFC: 1.09
  Pmvk nFC: 2.13
  Ppbp log2 nFC: 1.09
  Ppbp nFC: 2.13
  Ppp4r4 log2 nFC: 1.26
  Ppp4r4 nFC: 2.40
  Pram1 log2 nFC: 1.64
  Pram1 nFC: 3.12
  Prf1 log2 nFC: 1.34
  Prf1 nFC: 2.53
  Prmt8 log2 nFC: 1.27
  Prmt8 nFC: 2.41
  Pwwp3b log2 nFC: 1.22
  Pwwp3b nFC: 2.33
  Rab44 log2 nFC: 1.61
  Rab44 nFC: 3.05
  Rassf10 log2 nFC: 1.19
  Rassf10 nFC: 2.28
  Rbfox3 log2 nFC: 1.26
  Rbfox3 nFC: 2.40
  Rbm24 log2 nFC: 1.20
